{
  "source": "patent US7141604B2",
  "about": "“Citalopram for the treatment of elevated blood pressure” (Egis Gyógyszergyár Rt., priority 2002, dated 2006)",
  "key": {"hypertensive patients": {"tested_on": "hypertensive patients", "assay": "Study III: patients with high blood pressure but without anxiety or depression", "format": "in vivo", "conditions": "for outcome in 55 non-responder patients, antihypertensive added to citalopram 20 mg/day: after six weeks, betaloc oral 100 mg/day (40 patients) or captopril 2×12.5 mg/day (15 patients) in addition to citalopram", "protocol": "In the test 102 hypertensive patients participated who complained of the following symptoms: attack like headache, dizziness, trembling, tremor, sweating, fear of death, sensation of heat and cold, and gastrointestinal complaints. The patients thought that their complaints were the consequence of panic attacks, but this was not supported by their psychiatric anamnesis in an unambiguous manner.\nThe patients were orally treated with citalopram in a dose of 5 mg/day on the first week, 10 mg/day on the second week and 20 mg/day on the third week.\nFrom the 55 non-responder patients 40 individuals (39%) received betaloc in an oral dose of 100 mg/day and 15 patients (15%) received captopril in a dose of 2×12.5 mg/day, in addition to the administration of 20 mg/day of citalopram."}, "hypertonic patients": {"tested_on": "hypertonic patients", "assay": "Study I: antihypertensive effect of citalopram in hypertonic patients with panic disorder", "format": "in vivo", "conditions": "for outcome in remaining 84 patients, antihypertensive added to citalopram 20 mg/day: after 6 weeks, oral metoprolol 2×50 mg/day (64 patients) or captopril 2×12.5 mg/day (20 patients) in addition to citalopram", "protocol": "254 patients participated in the study. All patients were hypertonic. In this group of hypertonics there were 120 patients suffering from panic disorder and agoraphobia, 70 patients suffering from panic disorder with agoraphobia and with depression, and 64 patients suffering from panic disorder with agoraphobia and with social phobia and/or with obsessive compulsive disorder (OCD).\nThe patients received citalopram in a dose of 5 mg/day on the first week, 10 mg/day on the second week and 20 mg/day on the third and fourth week.\nThe citalopram treatment of the remaining 84 patients was continued with a weekly oral dosage of 20 mg/day. From said 84 individuals 64 patients were additionally treated orally with metoprolol for 3 weeks in a dose of 2×50 mg/day and 20 patients received captopril in a dose of 2×12.5 mg/day."}, "[1]": {"conditions": "in the course of treatment of depression; cited from earlier work"}, "[2]": {"tested_on": "patients having unstable high blood pressure", "conditions": "human, in vivo, po", "protocol": "In the study 13 patients having unstable high blood pressure were used who suffered from different anxiety disorders and depression.\nOut of these patients 3 suffered from panic disorder, 1 from obsessive compulsive disorder and 9 from panic disorder with depression. On the beginning of treatment with the following antidepressants the patients were normotensive.\nThe patients were treated orally with 40 mg/day of paroxetine, or 100 mg/day of sertraline, or 20 mg/day of fluoxetine, or 150 mg/day of fluvoxamine. After 6 months 60% of the patients and after a period of 12–30 months 40% of the patients became hypertensive beside the normalization of their psychiatric state.\nThereafter the above mentioned antidepressants were substituted with citalopram. The oral dose of citalopram was 5 mg/day on the first week, 10 mg/day on the second week and 20 mg/day on the third week."}, "[3]": {"conditions": "after three weeks, oral citalopram 5/10/20 mg/day, of 102 hypertensive patients"}, "[4]": {"conditions": "after 4 weeks treatment, citalopram 5/10/20/20 mg/day, of 254 hypertonic patients"}},
  "note": "Like-named read-outs stand apart in the source and are kept apart here.",
  "data": [
    {"smiles": "COCCc1ccc(OCC(O)CNC(C)C)cc1", "note": "(centres unmarked) [betaloc]", "values": [
      {"measurement": "outcome in 55 non-responder patients, antihypertensive added to citalopram 20 mg/day", "setting": "hypertensive patients", "result": "complete recovery"}
    ]},
    {"smiles": "C[C@H](CS)C(=O)N1CCC[C@H]1C(=O)O", "note": "[captopril]", "values": [
      {"measurement": "outcome in 55 non-responder patients, antihypertensive added to citalopram 20 mg/day", "setting": "hypertensive patients", "result": "complete recovery"},
      {"measurement": "outcome in remaining 84 patients, antihypertensive added to citalopram 20 mg/day", "setting": "hypertonic patients", "result": "complete recovery"}
    ]},
    {"smiles": "CN(C)CCCC1(c2ccc(F)cc2)OCc2cc(C#N)ccc21", "note": "(centres unmarked) [citalopram, 1-(3-dimethylamino-propyl)-1-(4-fluoro-phenyl)-1,3-dihydro-5-isobenzofurance-carbonitrile]", "values": [
      {"measurement": "undesired side effect given in information leaflet", "setting": "[1]", "result": "hypotension may occur"},
      {"measurement": "patients recovered and became normotensive", "setting": "hypertensive patients; [3]", "result": 47, "unit": "patients"},
      {"measurement": "share of patients recovered and became normotensive", "setting": "hypertensive patients; [3]", "result": 46, "unit": "%"},
      {"measurement": "patients with complete recovery (became normotensive, symptoms of anxiety and affective disorders disappeared)", "setting": "hypertonic patients; [4]", "result": 170, "unit": "patients"},
      {"measurement": "share of patients with complete recovery (became normotensive)", "setting": "hypertonic patients; [4]", "result": 67, "unit": "%"}
    ]},
    {"smiles": "CNCCC(Oc1ccc(C(F)(F)F)cc1)c1ccccc1", "note": "(centres unmarked) [fluoxetine]", "values": [
      {"measurement": "patients who became hypertensive", "setting": "[2]", "result": 40, "unit": "%"},
      {"measurement": "patients who became hypertensive", "setting": "[2]; 6 months", "result": 60, "unit": "%"}
    ]},
    {"smiles": "COCCCC/C(=N\\OCCN)c1ccc(C(F)(F)F)cc1", "note": "[fluvoxamine]", "values": [
      {"measurement": "patients who became hypertensive", "setting": "[2]", "result": 40, "unit": "%"},
      {"measurement": "patients who became hypertensive", "setting": "[2]; 6 months", "result": 60, "unit": "%"}
    ]},
    {"smiles": "COCCc1ccc(OCC(O)CNC(C)C)cc1", "note": "(centres unmarked) [metoprolol]", "values": [
      {"measurement": "outcome in remaining 84 patients, antihypertensive added to citalopram 20 mg/day", "setting": "hypertonic patients", "result": "complete recovery"}
    ]},
    {"smiles": "Fc1ccc([C@@H]2CCNC[C@H]2COc2ccc3c(c2)OCO3)cc1", "note": "[paroxetine]", "values": [
      {"measurement": "patients who became hypertensive", "setting": "[2]", "result": 40, "unit": "%"},
      {"measurement": "patients who became hypertensive", "setting": "[2]; 6 months", "result": 60, "unit": "%"}
    ]},
    {"smiles": "CN[C@H]1CC[C@@H](c2ccc(Cl)c(Cl)c2)c2ccccc21", "note": "[sertraline]", "values": [
      {"measurement": "patients who became hypertensive", "setting": "[2]", "result": 40, "unit": "%"},
      {"measurement": "patients who became hypertensive", "setting": "[2]; 6 months", "result": 60, "unit": "%"}
    ]}
  ]
}
